Results on eleven molecules are retold here after patent publication US20240376097A1, “BCL-2 Inhibitor” (BeiGene Ltd., priority 2020, published 2024).

The subject of test [1] is RS4;11 (BCL-2 dependent acute lymphoblastic leukemia cell line). In words: RS4;11 Cell Proliferation Assay. It counts as cell-based. The conditions noted are these: Homo sapiens, RS4-11, RS4;11 cells, read-out: Cellular proliferation assay (IC50, nM) RS4. An outline of the steps:
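RS4;11 cells, 50,000 per well in RPMI-1640 with 10% FBS, treated 48 h at 37 °C with a 10-point dilution series topping at 1 μM. Viability read by CellTiter-Glo ATP luminescence; mean IC50 reported.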

The target in test [2] is Recombinant human Bcl-2 protein (Homo sapiens (Human), UniProt P10415). In words: Bcl-2 TR-FRET Assay. The note with it: Bcl-2 wild type, TR-FRET; read-out: Biochemical assay (IC50, nM) Bcl-2 WT. Format: binding. The method in brief: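 0.05 nM Bcl-2 pre-incubated 0.5 h at room temperature with 10-point compound dilutions (top final 1, 0.1, 0.02 or 0.01 uM) in 20 mM potassium phosphate pH 7.5, 50 mM NaCl, 1 mM EDTA, 0.05% Tween-20, 0.01% BSA; FITC-Bak peptide (0.5 nM) and anti-6His Tb cryptate added, 1 h. IC50 from four-parameter logistic fit.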
On the technique in general: TR-FRET usually uses a lanthanide donor and a delayed reading to cut background.

Test [3] has as its target recombinant human Bcl-2-G101V protein (Homo sapiens (Human), UniProt P10415, G101V). In words: Bcl-2-G101V TR-FRET Assay. Format: binding. The note with it: Bcl-2 G101V mutant, TR-FRET; read-out: Biochemical assay (IC50, nM) Bcl-2 G101V. An outline of the steps:
(§1)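 Measures how compounds block Bcl-2-G101V engaging its ligand, by TR-FRET with 337 nm excitation and a 490/520 nm emission ratio; dose-response data give IC50 via a four-parameter logistic model.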

In test [4] the test system is recombinant human Bcl-2-G101V protein. In words: Bcl-2-G101V TR-FRET Assay. The conditions noted are these: ratio of biochemical IC50 Bcl-2 G101V / Bcl-2 WT. Format: binding. The method in brief: as §1
Test [5] has as its system BCL-2 G101V knock-in cell line H96 (derive from RS4;11). In words: Bcl 2-G101V Knock-In RS4;11 Cell Proliferation Assay. It counts as cell-based. The conditions noted are these: Homo sapiens, RS4;11 Bcl-2 G101V knock-in clone H96, 48 hrs, CellTiter-GLO, read-out: Cellular proliferation assay (IC50, nM) RS4. The method in brief: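 H96, a CRISPR-generated RS4;11 clone carrying BCL2-G101V knock-in (WES/RNA-seq validated), seeded 50,000 per well and exposed 48 h at 37 °C to 10-point dilutions topping at 1 or 10 μM. Viability by CellTiter-Glo luminescence; mean IC50.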
Background: ATP-based viability assays read luminescence as a measure of living cells.

On to `CC(C)c1ccccc1C1CN(Cc2cccc3c2CCCO3)CCN1C1CC2(CCN(c3ccc(C(=O)NS(=O)(=O)c4ccc(NC[C@H]5CC[C@](C)(O)CC5)c([N+](=O)[O-])c4)c(Oc4cnc5[nH]ccc5c4)c3)CC2)C1` (stereo partly shown) [Example 133, 2-((1H-pyrrolo[2,3-b]pyridin-5-yl)oxy)-4-(2-(4-(chroman-5-ylmethyl)-2-(2-isopropylphenyl)piperazin-1-yl)-7-azaspiro[3.5]nonan-7-yl)-N-((4-((((1r,4r)-4-hydroxy-4-methylcyclohexyl)methyl)amino)-3-nitrophenyl)sulfonyl)benzamide], for which the IC50 in test [1] came out at 0.34 nM; in test [2], 0.57 nM; in test [3], 1.9 nM; in test [5], 2.8 nM. For the same molecule, in test [4], the “Ratio of Bcl-2 G101V/WT” value is listed as 3.4.

Regarding `COc1ccc(CN2CCN(C3CC4(CCN(c5ccc(C(=O)NS(=O)(=O)c6ccc(NC[C@H]7CC[C@](C)(O)CC7)c([N+](=O)[O-])c6)c(Oc6cnc7[nH]ccc7c6)c5)CC4)C3)C(c3ccccc3CN3CCOCC3)C2)cc1` (stereo partly shown) [Example 37, 2-((1H-pyrrolo[2,3-b]pyridin-5-yl)oxy)-N-((4-((((1r,4r)-4-hydroxy-4-methylcyclohexyl)methyl)amino)-3-nitrophenyl)sulfonyl)-4-(2-(4-(4-methoxybenzyl)-2-(2-(morpholinomethyl)phenyl)piperazin-1-yl)-7-azaspiro[3.5]nonan-7-yl)benzamide], the IC50 in test [1] stood at 77.4 nM; in test [2], 0.42 nM; in test [3] it was 12 nM; in test [5], 289 nM. Besides, the “Ratio of Bcl-2 G101V/WT” value in test [4] is reported as 28.6.

With `COc1cc(CN2CCN(C3CC4(C3)CN(c3ccc(C(=O)NS(=O)(=O)c5ccc(NC[C@H]6CC[C@](C)(O)CC6)c([N+](=O)[O-])c5)c(Oc5cnc6[nH]ccc6c5)c3)C4)[C@H](c3ccccc3C(C)C)C2)cc2occc12` [Example 331, 2-((1H-pyrrolo[2,3-b]pyridin-5-yl)oxy)-N-((4-((((1r,4r)-4-hydroxy-4-methylcyclohexyl)methyl)amino)-3-nitrophenyl)sulfonyl)-4-(6-((R)-2-(2-isopropylphenyl)-4-((4-methoxybenzofuran-6-yl)methyl)piperazin-1-yl)-2-azaspiro[3.3]heptan-2-yl)benzamide], the IC50 in test [1] is 0.16 nM; in test [2] it was 0.29 nM; in test [3], 0.62 nM; in test [5], 0.69 nM. For the same molecule, the “Ratio of Bcl-2 G101V/WT” value in test [4] turned out to be 2.1.

On to `COc1ccc(CN2CCN(C3CC4(CCN(c5ccc(C(=O)NS(=O)(=O)c6ccc(NC[C@H]7CC[C@](C)(O)CC7)c([N+](=O)[O-])c6)c(Oc6cnc7[nH]cc(F)c7c6)c5)CC4)C3)C(c3ccccc3C(C)C)C2)cc1OC(F)F` (stereo partly shown) [Example 159, 4-(2-(4-(3-(difluoromethoxy)-4-methoxybenzyl)-2-(2-isopropylphenyl)piperazin-1-yl)-7-azaspiro[3.5]nonan-7-yl)-2-((3-fluoro-1H-pyrrolo[2,3-b]pyridin-5-yl)oxy)-N-((4-((((1r,4r)-4-hydroxy-4-methylcyclohexyl)methyl)amino)-3-nitrophenyl)sulfonyl) benzamide], for which the IC50 in test [1] amounted to 0.386 nM; in test [2], 0.12 nM; in test [3], 0.4 nM; in test [5], 1.71 nM. Besides, the “Ratio of Bcl-2 G101V/WT” value in test [4] is listed as 3.4.

Regarding `COc1ccc(CN2CCN(C3CC4(CCN(c5ccc(C(=O)NS(=O)(=O)c6ccc(NC[C@H]7CC[C@](C)(O)CC7)c([N+](=O)[O-])c6)c(Oc6cnc7[nH]ccc7c6)c5)CC4)C3)C(c3ccccc3C(C)C)C2)cc1C(C)=O` (stereo partly shown) [Example 212, 2-((1H-pyrrolo[2,3-b]pyridin-5-yl)oxy)-4-(2-(4-(3-acetyl-4-methoxybenzyl)-2-(2-isopropylphenyl)piperazin-1-yl)-7-azaspiro[3.5]nonan-7-yl)-N-((4-((((1r,4r)-4-hydroxy-4-methylcyclohexyl)methyl)amino)-3-nitrophenyl)sulfonyl)benzamide], the IC50 in test [1] worked out at 0.3 nM; in test [2] it was 0.13 nM; in test [3] it was 0.54 nM; in test [5] it was 2.15 nM. In test [4], the “Ratio of Bcl-2 G101V/WT” value came to 4.2.

For `CCc1ccccc1C1CN(Cc2ccc(OC)cc2)CCN1C1CC2(CCN(c3ccc(C(=O)NS(=O)(=O)c4ccc(NC[C@H]5CC[C@](C)(O)CC5)c([N+](=O)[O-])c4)c(Oc4cnc5[nH]ccc5c4)c3)CC2)C1` (stereo partly shown) [Example 76, 2-((1H-pyrrolo[2,3-b]pyridin-5-yl)oxy)-4-(2-(2-(2-ethylphenyl)-4-(4-methoxybenzyl)piperazin-1-yl)-7-azaspiro[3.5]nonan-7-yl)-N-((4-((((1r,4r)-4-hydroxy-4-methylcyclohexyl)methyl)amino)-3-nitrophenyl)sulfonyl)benzamide], the IC50 turned out to be 0.69 nM in test [1], 0.074 nM in test [2], 1.3 nM in test [3] and 6.5 nM in test [5]. Moreover, in test [4], the “Ratio of Bcl-2 G101V/WT” value was 17.

As for `COc1ccc(CN2CCN(C3CC4(CCN(c5ccc(C(=O)NS(=O)(=O)c6ccc(NC[C@H]7CC[C@](C)(O)CC7)c([N+](=O)[O-])c6)c(Oc6cnc7[nH]ccc7c6)c5)CC4)C3)C(c3ccccc3C(C)C)C2)cc1Br` (stereo partly shown) [Example 143, 2-((1H-pyrrolo[2,3-b]pyridin-5-yl)oxy)-4-(2-(4-(3-bromo-4-methoxybenzyl)-2-(2-isopropylphenyl)piperazin-1-yl)-7-azaspiro[3.5]nonan-7-yl)-N-((4-((((1r,4r)-4-hydroxy-4-methylcyclohexyl)methyl)amino)-3-nitrophenyl)sulfonyl)benzamide], the IC50 in test [1] is 0.674 nM; in test [2], 0.48 nM; in test [3], 2.6 nM; in test [5], 5.15 nM. The “Ratio of Bcl-2 G101V/WT” value in test [4] came to 5.5.

`C#Cc1ccc(CN2CCN(C3CC4(CCN(c5ccc(C(=O)NS(=O)(=O)c6ccc(NC[C@H]7CC[C@](C)(O)CC7)c([N+](=O)[O-])c6)c(Oc6cnc7[nH]ccc7c6)c5)CC4)C3)C(c3ccccc3C(C)C)C2)cc1` (stereo partly shown) [Example 142, 2-((1H-pyrrolo[2,3-b]pyridin-5-yl)oxy)-4-(2-(4-(4-ethynylbenzyl)-2-(2-isopropylphenyl)piperazin-1-yl)-7-azaspiro[3.5]nonan-7-yl)-N-((4-((((1r,4r)-4-hydroxy-4-methylcyclohexyl)methyl)amino)-3-nitrophenyl)sulfonyl)benzamide]: the IC50 in test [1] turned out to be 0.795 nM; in test [2], 0.56 nM; in test [3] it was 3 nM; in test [5], 6.22 nM. In test [4], the “Ratio of Bcl-2 G101V/WT” value was 5.3.

For `COc1cc(CN2CCN(C3CC4(C3)CN(c3ccc(C(=O)NS(=O)(=O)c5ccc(NC[C@H]6CC[C@](C)(O)CC6)c([N+](=O)[O-])c5)c(Oc5cnc6[nH]ccc6c5)c3)C4)[C@H](c3ccccc3C(C)C)C2)cc2c1OC(C)(C)C=C2` [Example 329, 2-((1H-pyrrolo[2,3-b]pyridin-5-yl)oxy)-N-((4-((((1r,4r)-4-hydroxy-4-methylcyclohexyl)methyl)amino)-3-nitrophenyl)sulfonyl)-4-(6-((R)-2-(2-isopropylphenyl)-4-((8-methoxy-2,2-dimethyl-2H-chromen-6-yl)methyl)piperazin-1-yl)-2-azaspiro[3.3]heptan-2-yl) benzamide], the IC50 in test [1] worked out at 0.25 nM; in test [2], 0.15 nM; in test [3], 0.47 nM; in test [5], 1.3 nM. Also, the “Ratio of Bcl-2 G101V/WT” value in test [4] is 3.1.

As to `COc1ccc(CN2CCN(C3CC4(CCN(c5ccc(C(=O)NS(=O)(=O)c6ccc(NC[C@H]7CC[C@](C)(O)CC7)c([N+](=O)[O-])c6)c(Oc6cnc7[nH]ccc7c6)c5)CC4)C3)[C@@H](c3ccccc3C(C)C)C2)cc1OC` [Example 81b], the IC50 is 2.85 nM in test [1], 0.074 nM in test [2], 2 nM in test [3] and 11.6 nM in test [5]. Moreover, the “Ratio of Bcl-2 G101V/WT” value in test [4] is listed as 27.

Consider `COc1ccc(CN2CCN(C3CC4(C3)CN(c3ccc(C(=O)NS(=O)(=O)c5ccc(NCC6CCOCC6)c([N+](=O)[O-])c5)c(Oc5cnc6[nH]cc(F)c6c5)c3)C4)[C@H](c3ccccc3C(C)C)C2)cc1` [Example 183, (R)-2-((3-fluoro-1H-pyrrolo[2,3-b]pyridin-5-yl)oxy)-4-(6-(2-(2-isopropylphenyl)-4-(4-methoxybenzyl)piperazin-1-yl)-2-azaspiro[3.3]heptan-2-yl)-N-((3-nitro-4-(((tetrahydro-2H-pyran-4-yl)methyl)amino)phenyl)sulfonyl) benzamide], for which the IC50 in test [1] is 0.1 nM; in test [2], 0.096 nM; in test [3], 0.18 nM; in test [5] it was 0.52 nM. Moreover, the “Ratio of Bcl-2 G101V/WT” value in test [4] stood at 1.8.
